Test results published in PubChem BioAssay (NCI).
Where “and” joins values, the source holds several entries; their conditions need not be identical. Equal values may be shown once.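 1) Cells in 96-well plates. 2) Compound, 48 h, 5 concentrations. 3) Linear interpolation between surrounding doses. 4) Unreached endpoint = highest concentration. At the GI50, growth is halved. Definition used: TGI = concentration required for complete inhibition of growth.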

Experiments:
Assay in all cases: NCI-60 cell line screen, 48 h
HOP-62 NSCLC = tested on: HOP-62 NSCLC
A549 NSCLC = tested on: A549 NSCLC
SR leukemia = tested on: SR leukemia
SN12C renal = tested on: SN12C renal
SF-295 CNS = tested on: SF-295 CNS
SNB-75 CNS = tested on: SNB-75 CNS
SF-268 CNS = tested on: SF-268 CNS
NCI-H226 lung = tested on: NCI-H226 lung
RPMI-8226 leukemia = tested on: RPMI-8226 leukemia
IGROV1 ovarian = tested on: IGROV1 ovarian

| SMILES | TGI (HOP-62 NSCLC) | TGI (A549 NSCLC) | TGI (SR leukemia) | TGI (SN12C renal) | TGI (SF-295 CNS) | TGI (SNB-75 CNS) | TGI (SF-268 CNS) | TGI (NCI-H226 lung) | TGI (RPMI-8226 leukemia) | TGI (IGROV1 ovarian) | GI50 (HOP-62 NSCLC) | GI50 (A549 NSCLC) | GI50 (SR leukemia) | GI50 (SN12C renal) | GI50 (SF-295 CNS) | GI50 (SNB-75 CNS) | GI50 (SF-268 CNS) | GI50 (NCI-H226 lung) | GI50 (RPMI-8226 leukemia) | GI50 (IGROV1 ovarian) |
| --- | --- | --- | --- | --- | --- | --- | --- | --- | --- | --- | --- | --- | --- | --- | --- | --- | --- | --- | --- | --- |
| CCOC1C=CCCO1 (centres undefined) | > 100 µM | > 100 µM | > 100 µM | > 100 µM | > 100 µM | > 100 µM | > 100 µM | > 100 µM | > 100 µM | > 100 µM |  |  |  |  |  |  |  |  |  |  |
| COc1ccc(/C=C/C(=O)c2cc3c(N)c(C(=O)Nc4ccccc4)sc3nc2C)cc1 | > 22.5 µM | > 50 µM | > 50 µM | > 21 µM | > 50 µM |  | > 50 µM | 7.28 µM | > 10.8 µM | > 50 µM | 0.252 µM | 0.273 µM | 0.207 µM | 0.311 µM | 0.232 µM | 0.0933 µM | 0.517 µM | 0.55 µM | 0.34 µM | 0.252 µM |
| COc1cc(/C=C/C(=O)c2c(C)n([O-])c3ccc(Cl)cc3[n+]2=O)cc(OC)c1OC | > 100 µM | > 100 µM | > 100 µM | > 100 µM | > 100 µM | 40.6 µM | > 100 µM | > 100 µM | > 100 µM | > 100 µM | 60.2 µM | 59.8 µM | 8.4 µM | 67.6 µM | 35 µM | 17.3 µM | 15.4 µM | 65.2 µM | > 100 µM | 35.4 µM |
| C[CH2][Sn]([Cl])([Cl])[CH2]C | > 100 µM | > 100 µM | > 100 µM | > 78.6 µM | > 100 µM | > 61.7 µM | 79.1 µM | 42.6 µM | 48.3 µM | > 100 µM | > 100 µM | > 100 µM | 25.3 µM | 35.1 µM | > 75 µM | 24.9 µM | 29.7 µM | 19.9 µM | 17.1 µM | > 100 µM |
| O=C(/C=C/c1ccc(C(F)(F)F)cc1)c1ccc(Nc2nc(NCCO)nc(N3CCOCC3)n2)cc1 | 6.57 µM | > 100 µM | > 100 µM | 5.69 µM | 7.6 µM | 7.9 µM | 11.1 µM | 5.89 µM | 5.71 µM | 4.42 µM | 2.22 µM | 2.74 µM | 3.1 µM | 2.22 µM | 2.67 µM | 1.84 µM | 2.68 µM | 2.32 µM | 2.07 µM | 2 µM |
| C=CCCCCCC(O)C(O)C/C=C\C/C=C\CC (centres undefined) | > 18.8 µM | > 18.8 µM | > 18.8 µM | > 18.8 µM | > 18.8 µM | > 18.8 µM | > 18.8 µM | > 18.8 µM | > 18.8 µM | > 18.8 µM |  |  |  |  |  |  |  |  |  |  |
| N#CC(C#N)=C1SCC(=O)CS1 | > 100 µM | > 100 µM | > 100 µM | > 100 µM | > 100 µM | > 100 µM | > 100 µM | > 100 µM | > 100 µM | > 100 µM |  |  |  |  |  |  |  |  |  |  |
| Oc1c(N=Nc2ccccc2)c2ccccc2c2ccc3ccccc3c12 | > 100 µM | > 100 µM | 32.6 µM | > 100 µM | > 100 µM | > 100 µM | > 100 µM | > 100 µM | > 100 µM | > 100 µM |  |  |  |  |  |  |  |  |  |  |
| CCCN(CCC)C(=O)[C@H](CC)[C@@H]1CC[C@@H](C)[C@@H]([C@H](C)[C@@H](O)[C@@H](C)C(=O)[C@H](CC)C2O[C@]3(C=C[C@@H](O)[C@]4(CC[C@@](C)([C@H]5CC[C@](O)(CC)[C@H](C)O5)O4)O3)[C@H](C)C[C@@H]2C)O1 (some centres undefined) | 13.6 µM | 26.9 µM | 7.35 µM | 6.1 µM | 8.91 µM | 14.4 µM | 22.7 µM | 5.3 µM | 6.06 µM | 10.5 µM | 3.33 µM | 3.18 µM | 2.49 µM | 2.13 µM | 2.45 µM | 1.73 µM | 3.43 µM | 1.93 µM | 1.77 µM | 2.59 µM |
| COC(=O)c1cc2oc(/C=C3\SC(=S)N(NC(C)=O)C3=O)cc2n1Cc1ccccc1 | 20.7 µM | 17.9 µM | > 50 µM | 20.8 µM | 15.6 µM | 25.4 µM | 27.6 µM | 22.4 µM | 5.55 µM | > 50 µM | 9.72 µM | 5.2 µM | 1.11 µM | 11.3 µM | 2.11 µM | 7.67 µM | 4.16 µM | 9.72 µM | 0.758 µM | 7.31 µM |
| Clc1nc(Cl)c(Cc2ccccc2)c(Cl)n1 | 20.4 µM | 27.5 µM | > 100 µM | 32 µM | 32 µM | 22.5 µM | 57.7 µM | 32.4 µM | > 100 µM | 46.7 µM |  |  |  |  |  |  |  |  |  |  |
| O=C(N/N=C\c1ccc(N(CCCl)CCCl)cc1Cl)c1cccnc1 | > 78 µM | 73.8 µM | 69.6 µM | > 84.4 µM | 9.97 µM | 73.7 µM | > 84 µM | 0.604 µM | 41.4 µM | 24.5 µM | 13.6 µM | 7.57 µM | 7.23 µM | 24.1 µM | 0.565 µM | 20.1 µM | 23.4 µM | 0.127 µM | 12.2 µM | 1.5 µM |
| O=C(NCP(=O)(O)O)c1cccnc1 | > 100 µM | > 100 µM | > 100 µM | > 100 µM | > 100 µM | > 100 µM |  | > 100 µM | > 100 µM | > 100 µM |  |  |  |  |  |  |  |  |  |  |
| OC(CNC1CCCC1)Cn1c2ccccc2c2ccccc21 (centres undefined) | 42.6 µM | > 100 µM | > 100 µM | > 100 µM | 73.5 µM | 26.5 µM | 80.4 µM | > 100 µM | > 100 µM | > 100 µM | 18.9 µM | > 100 µM | > 100 µM | 44.2 µM | 23.7 µM | 12.9 µM | 27 µM | 32.1 µM | > 100 µM | 72.9 µM |
| Oc1ccc(N=Nc2ccc(N=Nc3ccccc3)cc2)cc1 | 9.05 µM | 12 µM | 14 µM | 17.2 µM | 10.1 µM | 47.8 µM | 11.8 µM | 48.2 µM | 16 µM | 18.2 µM | 2.7 µM | 2.14 µM | 1.79 µM | 3.95 µM | 2.32 µM | 9.84 µM | 1.63 µM | 18.3 µM | 2.15 µM | 3.5 µM |
| COC(=O)[C@@H](C)C[C@H](Cc1ccccc1)NC(=O)c1csc([C@@H](C[C@H](C(C)C)N(C)C(=O)C2(NC(=O)[C@H]3CCCCN3C)CC2)OC(C)=O)n1 | > 33.3 µM | > 33.3 µM | > 33.3 µM | > 33.3 µM | > 33.3 µM | > 33.3 µM | > 33.3 µM | > 33.3 µM | 17 µM | > 33.3 µM |  |  | 0.000486 µM and 0.00333 µM | 0.0156 µM and 0.00333 µM | 0.0251 µM and 0.00333 µM | 0.00434 µM and 0.00333 µM |  | 0.00333 µM | 0.000613 µM and 0.00333 µM | 0.00147 µM and 0.00333 µM |
| C=C1CC[C@@H]2[C@](C)(COC(C)=O)[C@H](OC(C)=O)CC[C@@]2(C)[C@@H]1C/C=C1/C(=O)OC[C@H]1OC(C)=O | 21.4 µM | 30.7 µM | 10.1 µM | 13.3 µM | 26.8 µM | 14.2 µM | 22.8 µM | 5.42 µM | 7.68 µM | 6.23 µM | 4.4 µM | 11.9 µM | 2.59 µM | 3.07 µM | 13.3 µM | 2.83 µM | 8.56 µM | 2.14 µM | 2.06 µM | 2.41 µM |
| Cc1nn(-c2nc3ccccc3[nH]2)c2c1C(c1ccc3c(c1)OCO3)CC(=O)N2 (centres undefined) | 5.21 µM | 7.73 µM | > 24.9 µM | 9.77 µM | 4.38 µM | 8.09 µM | 11.7 µM | 7.09 µM | 5.02 µM | 4.57 µM | 2.38 µM | 2.56 µM | 2.82 µM | 2.77 µM | 1.81 µM | 2.69 µM | 3.38 µM | 2.45 µM | 2.22 µM | 2.36 µM |
| C[CH2][Sn]([CH2]C)([O]C(=O)c1cccc(F)c1)[O][Sn]([CH2]C)([CH2]C)[O]C(=O)c1cccc(F)c1 | > 100 µM | > 100 µM | > 100 µM | 31.3 µM | 36.9 µM | 31.9 µM | 32.9 µM | 33.8 µM |  | > 100 µM | 37.3 µM | > 100 µM | 28 µM | 17 µM | 18.7 µM | 16.9 µM | 17.9 µM | 18.8 µM |  | > 100 µM |
| Cc1cccc2c1C/C(=C1\CCc3c(C)cccc31)C2=O | > 100 µM | > 100 µM | > 100 µM | > 100 µM | > 100 µM | > 100 µM | > 100 µM | > 100 µM |  | > 100 µM |  |  |  |  |  |  |  |  |  |  |
| NC(CCSC(F)F)C(=O)O (centres undefined) | > 100 µM | > 100 µM | > 100 µM | > 100 µM | > 100 µM | > 100 µM | > 100 µM | > 100 µM |  | > 100 µM |  |  |  |  |  |  |  |  |  |  |
| Cc1cccc2c1C(=O)OC2(C)c1cccc2ccccc12 (centres undefined) |  | > 100 µM | 68.7 µM | 56 µM | > 100 µM | 87.7 µM | > 100 µM | 57.2 µM | > 100 µM |  |  |  |  |  |  |  |  |  |  |  |
